# Reference: patent publication US20260102359A1, “COMBINATION TREATMENT OF DERMAL AND TRANSDERMAL FIBROTIC DISEASES, DISORDERS AND ASSOCIATED PAIN AND INFLAMMATION” (ERESINA, LLC, priority 2022, published 2026)
# Counter-ions that a name gives are not always drawn. *1 amine or outer side, *2 acyl side, *3 side chain or, on linkers, in order; H or OH if unused. Where a SMILES comes first, the peptide text is derived from it. Bridges are numbered along the chain shown (N, C = ends). [ ]: non-standard residue; d: D form. The star is where a group is joined. pTerphenylCO(4''-OnC5H11) = CCCCCOc1ccc(-c2ccc(-c3ccc(C(=O)*)cc3)cc2)cc1; Orn(4R-OH,5R-OH) = O=C([C@H](C[C@@H](O)[C@@H](O)N[*:3])N[*:1])[*:2]; hTyr(3S-OH,4S-OH) = N[C@H](C(=O)O)[C@H](O)[C@@H](O)c1ccc(O)cc1; Pro(3S-OH,4S-Me) = C[C@H]1CN[C@H](C(=O)O)[C@H]1O; Hyp = O=C(O)[C@@H]1C[C@@H](O)CN1
# System: hDMFa myofibroblast cells
# Experiment: not given
# Settings: not given
row,Molecule,Compound Myofibroblast Cytotoxicity Activity
1,"NCCCS(=O)(=O)O [Cmpd 961, Tramiprosate]",+++++
2,"C/C=C/c1ccc(OC)cc1 [Cmpd 963, Trans-Anethole]",++
3,"Cl.N[C@@H]1C[C@H]1c1ccccc1 [Cmpd 964, Tranylcypromine hydrochloride]",++++
4,"CC1(C)CC(=O)CC(C)(C)N1 [Cmpd 967, Triacetonamine]",++
5,"N[C@@H](Cc1cc(I)c(Oc2ccc(O)c(I)c2)c(I)c1)C(=O)O [Cmpd 972, Triiodothyronine]",++
6,"C[C@]12CC[C@H]3[C@@H](CC[C@@]45O[C@@H]4C(O)=C(C#N)C[C@]35C)[C@@H]1CC[C@@H]2O [Cmpd 973, Trilostane]",++
7,"COc1cc(C(=O)NCc2ccc(OCCN(C)C)cc2)cc(OC)c1OC.Cl [Cmpd 974, Trimethobenzamide hydrochloride]",++
8,"CC(CN(C)C)CN1c2ccccc2CCc2ccccc21.O=C(O)/C=C\C(=O)O (stereo not drawn) [Cmpd 975, Trimipramine (maleate)]",++
9,"Cc1c(C)c2c(c(C)c1O)CCC(C)(COc1ccc(CC3SC(=O)NC3=O)cc1)O2 (stereo not drawn) [Cmpd 976, Troglitazone]",+++
10,"Cc1[nH]c(/C=C2\C(=O)Nc3ccccc32)c(C)c1CCC(=O)O [Cmpd 979, TSU-68 (SU6668, Orantinib)]",++
11,"NCCc1ccc(O)cc1 [Cmpd 981, Tyramine]",++
12,"C[C@H](CCC(=O)O)[C@H]1CC[C@H]2[C@@H]3[C@@H](O)C[C@@H]4C[C@H](O)CC[C@]4(C)[C@H]3CC[C@]12C [Cmpd 988, Ursodeoxycholic Acid]",+
13,"O=c1ccn([C@@H]2O[C@H](COP(=O)([O-])OP(=O)([O-])OP(=O)([O-])O)[C@@H](O)[C@H]2O)c(=O)[nH]1.[Na+].[Na+].[Na+] [Cmpd 990, UTP, Trisodium Salt]",++
14,"CCCC(CCC)C(=O)O [Cmpd 993, Valproic acid]",+++
15,"COc1cc2/c(=N/c3ccc(Br)cc3F)nc[nH]c2cc1OCC1CCN(C)CC1 [Cmpd 994, Vandetanib (ZD6474)]",++++
16,"COc1cc(C(=O)O)ccc1O [Cmpd 995, Vanillic acid]",++
17,"CCCc1nc(C)c2c(=O)[nH]c(-c3cc(S(=O)(=O)N4CCN(CC)CC4)ccc3OCC)nn12 [Cmpd 996, Vardenafil]",++++
18,"COc1ccc(C(CN(C)C)C2(O)CCCCC2)cc1 (stereo not drawn) [Cmpd 998, Venlafaxine]",++
19,"C=Cc1c(C)c2cc3nc(cc4[nH]c(cc5nc(cc1[nH]2)C(C)=C5CCC(=O)O)c(CCC(=O)OC)c4C)[C@@]1(C)C3=CC=C(C(=O)OC)[C@H]1C(=O)OC [Cmpd 999, Verteporfin]",+++++
20,"OCc1cc([C@@H](O)CNCCCCCCOCCOCc2c(Cl)cccc2Cl)ccc1O [Cmpd 1001, Vilanterol trifenatate]",+++
21,"CC[C@]1(O)C[C@@H]2CN(CCc3c([nH]c4ccccc34)[C@@](C(=O)OC)(c3cc4c(cc3OC)N(C)[C@H]3[C@@](O)(C(=O)OC)[C@H](OC(C)=O)[C@]5(CC)C=CCN6CC[C@]43[C@@H]65)C2)C1 [Cmpd 1002, Vinblastine sulfate]",++

row,Molecule,Compound Myofibroblast Cytotoxicity Activity
1,"CC[C@]1(O)C[C@H]2CN(CCc3c([nH]c4ccccc34)[C@@](C(=O)OC)(c3cc4c(cc3OC)N(C=O)[C@H]3[C@@](O)(C(=O)OC)[C@H](OC(C)=O)[C@]5(CC)C=CCN6CC[C@]43[C@@H]65)C2)C1 [Cmpd 1004, Vincristine sulfate]",+++
2,"CCC1=C[C@@H]2CN(C1)Cc1c([nH]c3ccccc13)[C@@](C(=O)OC)(c1cc3c(cc1OC)N(C)[C@H]1[C@@](O)(C(=O)OC)[C@H](OC(C)=O)[C@]4(CC)C=CCN5CC[C@]31[C@@H]54)C2 [Cmpd 1005, Vinorelbine]",++
3,"CCOC(=O)C1=C[C@]2(CC)CCCN3CCc4c(n1c1ccccc41)[C@@H]32 [Cmpd 1006, Vinpocetine]",+++
4,"C=C1CC[C@H](O)C/C1=C/C=C1\CCC[C@]2(C)[C@@H]([C@H](C)/C=C/[C@H](C)C(C)C)CC[C@@H]12 [Cmpd 1008, Vitamin D2 (Ergocalciferol)]",+++
5,"C=C1CC[C@H](O)C/C1=C/C=C1\CCC[C@]2(C)[C@@H]([C@H](C)CCCC(C)C)CC[C@@H]12 [Cmpd 1009, Vitamin D3]",+++
6,"CC1=C(C/C=C(\C)CCC[C@H](C)CCC[C@H](C)CCCC(C)C)C(=O)c2ccccc2C1=O [Cmpd 1010, Vitamin K1]",++
7,"CC(C)(C)C#Cc1cc(N(C(=O)[C@H]2CC[C@H](C)CC2)[C@H]2CC[C@H](O)CC2)c(C(=O)O)s1 [Cmpd 1014, VX-222 (VCH-222,Lomibuvir)]",++
8,"O=c1[nH]c(=O)c2[nH]cnc2[nH]1 [Cmpd 1020, xanthine]",++
9,"COc1cc(C(=O)NS(=O)(=O)c2ccccc2C)ccc1Cc1cn(C)c2ccc(NC(=O)OC3CCCC3)cc12 [Cmpd 1023, Zafirlukast]",+++++
10,"Nc1ccn([C@H]2CC[C@@H](CO)O2)c(=O)n1 [Cmpd 1024, Zalcitabine]",++++
11,"O=C1Cc2cc(CCN3CCN(c4nsc5ccccc45)CC3)c(Cl)cc2N1 [Cmpd 1029, Ziprasidone HCl]",++
12,Cilengitide [Cmpd 261],++++
13,Cyclo(RGDyK) [Cmpd 303],++
14,D-(−)-Isoascorbic Acid [Cmpd 306],+
15,Fumalic acid [Cmpd 474],++
16,Icatibant Acetate [Cmpd 514],++
17,"Lecithin, Soybean [Cmpd 577]",+
18,Teicoplanin [Cmpd 921],+++
19,Zinc Pyrithione [Cmpd 1026],+++++
20,beta-Alanine [Cmpd 174],++++

# System: hDMFa myofibroblast cells
# Experiment: Myofibroblast cytotoxicity, MTS cell viability assay
# Settings: serum-free media with inhibitor 8-12 hours, MTS cell viability, inhibition normalized as percentage of negative control
row,Molecule,Compound Myofibroblast Cytotoxicity Activity
1,"OCCCCCCCCO [Cmpd 38, 1,8-Octanediol]",+
2,Cc1cc(O)cc(C(C)C)c1 [Cmpd 53],+
3,"CCCCCOc1ccc(-c2ccc(-c3ccc(C(=O)N[C@H]4C[C@@H](O)[C@@H](O)NC(=O)[C@@H]5[C@@H](O)[C@@H](C)CN5C(=O)[C@H]([C@@H](C)O)NC(=O)[C@H]([C@H](O)[C@@H](O)c5ccc(O)cc5)NC(=O)[C@@H]5C[C@@H](O)CN5C(=O)[C@H]([C@@H](C)O)NC4=O)cc3)cc2)cc1 [Cmpd 124, Anidulafungin] ({pTerphenylCO(4''-OnC5H11)}-[Orn(4R-OH,5R-OH)]T[Hyp][hTyr(3S-OH,4S-OH)]T[Pro(3S-OH,4S-Me)]; lactam 1-C)",+++++
4,"C[C@H]1[C@H](C)CC[C@]2(C(=O)O)CC[C@]3(C)C(=CC[C@@H]4[C@@]5(C)C[C@@H](O)[C@H](O)[C@@](C)(CO)[C@@H]5CC[C@]43C)[C@H]12 [Cmpd 135, Asiatic acid]",+++++
